Structures are written as SMILES.

Broadly, the IC50 is the midpoint of a concentration-inhibition curve. A word on the half-life: it is how long it takes for the measured level to halve. For orientation: Ki means the equilibrium dissociation constant of an inhibitor or competing ligand from its target.

A short description of data set [1]: Inhibition of human CES2A using fluorescein diacetate as fluorescent substrate preincubated for 3 mins followed by substrate addition and measured after 30 mins by fluorescence based analysis.
Data set [2] is described as follows: Metabolic stability in human liver microsomes assessed as half life at 10 uM preincubated for 3 mins followed by UDPGA addition and measured upto 120 mins by HPLC analysis. Format: ADME, Microsome. The conditions noted are these: time < 123 min. Background: Liver microsomes are vesicles of endoplasmic reticulum, rich in cytochrome P450 enzymes.
Data set [3] is described as follows: Metabolic stability in human liver microsomes assessed as half life at 10 uM preincubated for 3 mins followed by NADPH addition and measured upto 120 mins by HPLC analysis. Format: ADME, Microsome. The conditions noted are these: time < 123 min.
A short description of data set [4]: Inhibition of human CES1A using NLMe as substrate preincubated for 3 mins followed by substrate addition and measured after 20 mins by Spectra max microplate reader analysis.
For data set [5], the species on record is Homo sapiens. Nature of the data set: Selectivity ratio of IC50 for human CES1A to IC50 for human CES2A.
The nature of data set [6]: Binding affinity to human CES2A assessed as inhibition constant using fluorescein diacetate as fluorescent substrate preincubated for 3 mins followed by substrate addition and measured after 30 mins by Lineweaver-Burk plot analysis.
Data set [7] concerns HepG2. Put plainly: Cytotoxicity against human HepG2 cells assessed as reduction in cell viability at 10 uM measured after 24 hrs by CCK-8 method. Format: toxicity, cell-based. The conditions noted are these: hepg2, 24 h.
The nature of data set [8]: Inhibition of intracellular CES2A in human HepG2 cells assessed as reduction in NCEN hydrolysis incubated for 1 hr. Type of data set: cell-based.

Compound `CCCCCCCCC(=O)c1cccc2oc(-c3ccccc3C(=O)O)cc12` displayed an IC50 in data set [1] of 130 nM.

As to `O=c1ccc2ccc(O)cc2o1` [UMBELLIFERONE], the half-life at 10 µM in data set [2] worked out at 0.304 h.

In data set [1], `CCCCCCC(=O)c1cccc2oc(-c3ccc(C)cc3C(=O)OC)cc12` yielded an IC50 of 300 nM.

Take `CCCC(=O)c1cccc2oc(-c3cc(OC)ccc3O)cc12`: in data set [1], the half-inhibitory concentration (IC50) is 21 nM.

On to `C[C@]12CC[C@H]3[C@@H](CCC4=CC(=O)CC[C@@]43C)[C@@H]1CC[C@@H]2O` [TESTOSTERONE], for which, in data set [3], the half-life at 10 µM stood at 0.46 h.

Compound `CCCCCCCCC(=O)c1cccc2oc(-c3c(O)cccc3C(=O)CCC)cc12` yielded an IC50 in data set [1] of 29 nM.

`CCCCCCCCC(=O)c1cccc2oc(-c3ccccc3)cc12` yielded an IC50 in data set [1] of 5410 nM.

With `CCCCCCCCC(=O)c1cccc(O)c1-c1cc2cc(OC)ccc2o1`, the IC50 in data set [1] was 100 nM.

In turn, `CCCCCCCCC(=O)c1cccc(O)c1-c1cc2ccccc2o1` had an IC50 in data set [1] of 230 nM.

With `CCCCCCC(=O)c1cccc2oc(-c3cc(C(=O)O)ccc3O)cc12`, the IC50 in data set [1] is 200 nM.

Compound `CCCCCCCCC(=O)c1cccc(OC)c1-c1cc2c(C(=O)CCCCCCCC)cccc2o1` displayed an IC50 in data set [1] of 600 nM.

In data set [1], `CCCCCCCCC(=O)c1cccc(O)c1-c1cc2c(C(=O)CCCCCCCC)cccc2o1` showed an IC50 of 1090 nM.

Consider `CCCCCCC(=O)c1cccc2oc(-c3cc(C(=O)OC)ccc3O)cc12`, for which, in data set [1], inhibition was half-maximal at 35 nM (IC50).

The compound `CCCCCCCCC(=O)c1cccc2oc(-c3c(O)cccc3C(=O)CCCCCC)cc12` came in with an IC50 in data set [1] of 54 nM.

In the case of `CCCCCCC(=O)c1cccc2oc(-c3cc(OCC)ccc3O)cc12`, in data set [1], it took 9 nM to reach half-maximal inhibition (IC50).

`CCCCCCCCC(=O)c1cccc2oc(-c3ccccc3C(=O)OC)cc12` yielded an IC50 in data set [1] of 100 nM.

In the case of `CCCCCCCCC(=O)c1cccc2oc(-c3cc(OC)ccc3O)cc12`, the IC50 in data set [1] was 22 nM; in data set [4], 2610 nM.

As to `CCCCCCCCC(=O)c1cccc(O)c1-c1cc2c(C(=O)CCC)cccc2o1`, inhibition in data set [1] was half-maximal at 120 nM (IC50).

Turning to `CCCCCCCCC(=O)c1cccc(O)c1-c1cc2ccc(OC)cc2o1`, the IC50 in data set [1] came to 190 nM.

On to `CCCCCCC(=O)c1cccc2oc(-c3ccc(C)cc3C(=O)O)cc12`, for which the IC50 in data set [1] came to 490 nM.

`CCCCCCCCC(=O)c1cccc(OC(C)=O)c1-c1cc2c(C(=O)CCCCCCCC)cccc2o1`: in data set [1], the midpoint of inhibition, the IC50, lay at 690 nM.

In turn, `CCCCCCCCC(=O)c1cccc(O)c1-c1cc2cc(C)ccc2o1` registered an IC50 in data set [1] of 84 nM.

`CCCCCCCCC(=O)c1cccc(O)c1-c1cc2c(C(=O)CCCCCC)cccc2o1` had an IC50 in data set [1] of 58 nM.

The compound `CCCCCCC(=O)c1cccc2oc(-c3ccccc3C(=O)O)cc12` had an IC50 in data set [1] of 360 nM.

As for `CCCCCCC(=O)c1cccc2oc(-c3ccccc3C(=O)OC)cc12`, in data set [1], the IC50 was 250 nM.

In data set [1], `CCCCCCC(=O)c1cccc2oc(-c3cc(OC)ccc3O)cc12` displayed an IC50 of 8 nM.

Regarding `CCCCCCCCC(=O)c1cccc2oc(-c3ccc(C)cc3C(=O)OC)cc12`, the IC50 in data set [1] worked out at 310 nM.

Compound `CCCCCCCCC(=O)c1cccc2oc(-c3ccccc3O)cc12` had an IC50 in data set [1] of 32 nM.

As to `CN(C)C(=O)C(CCN1CCC(O)(c2ccc(Cl)cc2)CC1)(c1ccccc1)c1ccccc1` [LOPERAMIDE], the IC50 in data set [1] was 350 nM.

In the case of `CCCCCCCCC(=O)c1cccc2oc(-c3cc(C)ccc3O)cc12`, the IC50 in data set [1] came to 54 nM.

As for `CCCCCCC(=O)c1cccc2oc(-c3cc(C(F)(F)F)ccc3O)cc12`, the midpoint of inhibition in data set [1], the IC50, lay at 20 nM.

Compound `CCCCCCCCC(=O)c1cccc2oc(-c3ccc(OC)cc3O)cc12` showed an IC50 in data set [1] of 140 nM.

On to `CCCCCCC(=O)c1c(C)ccc2oc(-c3cc(OC)ccc3O)cc12`, for which the 50% inhibitory concentration (IC50) in data set [1] is 2 nM; in data set [4] it was 7260 nM; in data set [8] (Homo sapiens, HepG2, 1 h, read-out: IC50) it was 52 nM; in data set [8] (hepg2), “Dose-Dependent Effect”. The Ratio IC50 in data set [5] amounted to 4540. For the same compound, the Ki in data set [6] was 1.4 nM. The Activity entry in data set [7] was “Non-Toxic”. Moreover, the half-life at 10 µM was 2.1 h in data set [3] and 1.62 h in data set [2].

Compound `CCCCCCCCC(=O)c1cccc2oc(-c3ccc(C)cc3C(=O)O)cc12` yielded an IC50 in data set [1] of 110 nM.

(Values after ChEMBL document CHEMBL5625217, “New bysspectin A derivatives as potent inhibitors of human carboxylesterase 2A” (Eur J Med Chem, 2023).)
